Source: patent US10131669B2, “Pyrazolopyrimidine compounds” (Pfizer Inc., priority 2014, dated 2018)
Structures can show the parent of a compound that is named as a salt.

Key:
[1] = target: T1, human PDE4D3 (Homo sapiens, UniProt Q08499); assay: PDE4D3 Scintillation Proximity Assay (SPA), inhibition of enzyme activity; type: biochemical; conditions: geometric mean of 2-7 determinations unless otherwise indicated (b: ≥8 determinations; c: single determination); 1 μM cAMP, 30 min at 25° C.; read-out: Human PDE4D FL; IC50
T1 construct: His6 (C); made in house; host or cells: insect cells (baculovirus, pFastBac)
T1 sequence (Q08499 186-808): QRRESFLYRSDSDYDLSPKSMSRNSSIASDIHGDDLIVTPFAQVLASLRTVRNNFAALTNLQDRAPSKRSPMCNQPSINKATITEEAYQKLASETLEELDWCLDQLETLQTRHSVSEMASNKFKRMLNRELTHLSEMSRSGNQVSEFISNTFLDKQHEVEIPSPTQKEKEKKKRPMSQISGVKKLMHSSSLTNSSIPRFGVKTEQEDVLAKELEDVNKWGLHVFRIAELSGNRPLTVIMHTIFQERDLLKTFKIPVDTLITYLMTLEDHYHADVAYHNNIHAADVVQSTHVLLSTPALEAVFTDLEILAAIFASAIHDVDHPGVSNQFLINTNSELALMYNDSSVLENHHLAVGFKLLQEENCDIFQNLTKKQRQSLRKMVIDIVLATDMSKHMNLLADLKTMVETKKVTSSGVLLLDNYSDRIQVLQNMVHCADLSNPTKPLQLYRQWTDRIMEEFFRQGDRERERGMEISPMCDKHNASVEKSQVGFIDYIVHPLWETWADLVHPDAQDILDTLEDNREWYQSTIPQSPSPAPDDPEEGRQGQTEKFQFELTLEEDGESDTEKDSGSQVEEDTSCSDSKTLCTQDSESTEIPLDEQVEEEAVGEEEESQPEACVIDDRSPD
Procedure: The recombinant Bacmid was isolated and used to transfect insect cells to generate a viral stock. To generate cell paste for purification, insect cells were infected and cells were harvested 72 hours after infection. Insect cell paste was lysed and after centrifugation, the supernatant was chromatographed on Ni-NTA agarose (Qiagen) as described in Seeger, T. F. et al., Brain Research 985 (2003) 113-126. Ni-NTA agarose eluting fractions containing PDE4 were pooled, diluted with Q Buffer A (50 mM Tris HCl pH 8, 4% glycerol, 100 mM NaCl, 1 mM TCEP, Protease inhibitors EDTA-free (Roche)) to reduce NaCl to ˜200 mM, and loaded on a Q Sepharose (GE Healthcare) column. After washing with Q buffer A to baseline, PDE4D was eluted with a gradient from 10% to 60% of Buffer B (50 mM Tris HCl pH 8, 1 M NaCl, 4% glycerol, 1 mM TCEP). PDE4D fractions were analyzed by SDS-PAGE Coomassie blue staining, pooled based on purity, frozen and stored at −80° C.
(§1) The PDE4A3, PDE4B1, PDE4C1 and PDE4D3 assays use the Scintillation Proximity Assay (SPA) technology to measure the inhibition of human recombinant […], PDE4C1, and PDE4D3 enzyme activity by compounds in vitro. The PDE4A1, PDE4B3, PDE4C1, and PDE4D3 assays are run in parallel using identical parameters, except for the concentration of enzyme (80 pM PDE4A3, 40 pM PDE4B3, 40 pM PDE4C1 and 10 pM PDE4D). The assays are performed in a 384-well format with 50 uL assay buffer (50 mM TRIS pH7.5; 1.3 mM MgCl2; 0.01% Brij) containing enough PDE4A3, PDE4B1, PDE4C1, and PDE4D to convert ˜20% of substrate (1 μM cAMP consisting of 20 nM 3H-cAMP+[…] cold cAMP) and a range of inhibitors. Reactions are incubated for 30 min at 25° C. The addition of 20 uL of 8 mg/ml yitrium silicate SPA beads (Perkin Elmer) stops the reaction. The plates are sealed (TopSeal, Perkin Elmer) and the beads are allowed to settle for 8 hrs, after which they are read on the Trilux Microbeta overnight.

[2] = target: T2, Human PDE4B1 (Homo sapiens, UniProt Q07343, S133E/S654A/S659A/S661A); assay: PDE4B1 Scintillation Proximity Assay (SPA), inhibition of enzyme activity; type: biochemical; conditions: geometric mean of 2-7 determinations unless otherwise indicated (b: ≥8 determinations; c: single determination); 1 μM cAMP, 30 min at 25° C.; read-out: Human PDE4B FL; IC50
T2 construct: His6 (N); thrombin cleavage site (N); made in house; host or cells: insect cells (baculovirus, pFastBac)
T2 sequence (Q07343 122-736 S133E/S654A/S659A/S661A): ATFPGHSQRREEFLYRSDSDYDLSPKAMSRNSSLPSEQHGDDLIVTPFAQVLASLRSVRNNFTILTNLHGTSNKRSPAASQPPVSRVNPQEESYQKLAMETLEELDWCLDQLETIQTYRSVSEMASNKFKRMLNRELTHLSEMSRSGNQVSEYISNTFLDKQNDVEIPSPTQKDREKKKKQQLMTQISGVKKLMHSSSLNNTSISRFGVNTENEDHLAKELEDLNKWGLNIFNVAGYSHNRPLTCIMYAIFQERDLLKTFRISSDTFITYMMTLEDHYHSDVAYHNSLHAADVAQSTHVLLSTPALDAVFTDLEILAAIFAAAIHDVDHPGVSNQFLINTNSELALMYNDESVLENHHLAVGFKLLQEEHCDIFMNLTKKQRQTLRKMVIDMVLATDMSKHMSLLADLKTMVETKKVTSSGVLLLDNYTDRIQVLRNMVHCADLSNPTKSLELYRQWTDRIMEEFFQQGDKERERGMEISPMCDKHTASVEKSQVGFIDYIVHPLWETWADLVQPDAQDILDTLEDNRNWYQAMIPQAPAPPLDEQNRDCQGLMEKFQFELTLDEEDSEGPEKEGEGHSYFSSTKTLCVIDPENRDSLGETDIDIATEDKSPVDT
Procedure: The recombinant Bacmid was isolated and used to transfect insect cells to generate a viral stock. To generate cell paste for purification, insect cells were infected with the virus stock and cells were harvested 72 hours after infection as described in Seeger, T. F. et al., Brain Research 985 (2003) 113-126. Insect cell paste was lysed and after centrifugation, the supernatant was chromatographed on Ni-NTA agarose (Qiagen) as described in Seeger, T. F. et al., Brain Research 985 (2003) 113-126. Ni-NTA agarose eluting fractions containing PDE4 were pooled, diluted with Q buffer A (20 mM Tris HCl pH 8, 5% glycerol, 1 mM TCEP) to reduce NaCl to ˜100 mM and loaded on a Source 15Q (GE Healthcare) column. After washing with Q buffer A/10% buffer B to baseline, PDE4D was eluted with a gradient from 10% to 60% of Buffer B (20 mM Tris HCl pH 8, 1 M NaCl, 5% glycerol, 1 mM TCEP). PDE4D fractions were analyzed by SDS-PAGE Coomassie blue staining, pooled based on purity, frozen and stored at −80° C.
as §1

SMILES	IC50 [1] [nM]	IC50 [2] [nM]
O=C(NC1CC1)c1nn2cccnc2c1-c1cncc(Cl)c1 [Example 29, 3-(5-chloropyridin-3-yl)-N-cyclopropylpyrazolo[1,5-a]pyrimidine-2-carboxamide]	3010	132
O=C(c1nn2cccnc2c1-c1cc(Cl)ccc1F)N1CCC1 [Example 74, azetidin-1-yl[3-(5-chloro-2-fluorophenyl)pyrazolo[1,5-a]pyrimidin-2-yl]methanone]	5990	45.8
O=C(c1nn2cccnc2c1-c1cc(F)c(Cl)c(F)c1)N1CCC1 [Example 41, azetidin-1-yl[3-(4-chloro-3,5-difluorophenyl)pyrazolo[1,5-a]pyrimidin-2-yl]methanone]	350	5.32
O=C(c1nn2cccnc2c1-c1ccnc(OC(F)F)c1)N1CCC1 [Example 37, azetidin-1-yl{3-[2-(difluoromethoxy)pyridin-4-yl]pyrazolo[1,5-a]pyrimidin-2-yl}methanone]	691	31.5
O=C(NC1CC1)c1nn2cccnc2c1-c1ccnc(OC(F)F)c1 [Example 38, N-cyclopropyl-3-[2-(difluoromethoxy)pyridin-4-yl]pyrazolo[1,5-a]pyrimidine-2-carboxamide, formate salt]	706	51.1
O=C(NC1CC1)c1nn2cccnc2c1-c1ccc(Cl)c(Cl)c1 [Example 32, N-cyclopropyl-3-(3,4-dichlorophenyl)pyrazolo[1,5-a]pyrimidine-2-carboxamide, hydrochloride salt]	720	9.98
N#Cc1ccc(-c2c(C(=O)NC3CC3)nn3cccnc23)c(F)c1 [Example 76, 3-(4-cyano-2-fluorophenyl)-N-cyclopropylpyrazolo[1,5-a]pyrimidine-2-carboxamide]	> 30000	443
O=C(NC1CC1(F)F)c1nn2cccnc2c1-c1ccc(Cl)cc1 (stereo not drawn) [Example 40, 3-(4-chlorophenyl)-N-(2,2-difluorocyclopropyl)pyrazolo[1,5-a]pyrimidine-2-carboxamide]	2360	68
O=C(Nc1nn2cccnc2c1-c1ccc(Cl)c(F)c1)c1ccccc1 [Example 30, N-[3-(4-chloro-3-fluorophenyl)pyrazolo[1,5-a]pyrimidin-2-yl]benzamide]	27000	2180
